{"source": "ChEMBL document CHEMBL1127137", "about": "“3-phosphono-1-carba-1-dethiacephalosporins as antibacterial agents” (1993)", "type_in_all_cases": "functional", "key": {"Escherichia coli": {"system": "Escherichia coli", "assay": "Antimicrobial activity against gram negative Escherichia coli (EC14) was determined"}, "Streptococcus pneumoniae": {"system": "Streptococcus pneumoniae", "assay": "Antimicrobial activity against gram positive Streptococcus pneumoniae (PARK) was determined"}, "Staphylococcus aureus [1]": {"system": "Staphylococcus aureus", "assay": "Antimicrobial activity against gram positive Staphylococcus aureus (X1.1) was determined"}, "Staphylococcus aureus [2]": {"system": "Staphylococcus aureus", "assay": "Antimicrobial activity against gram positive Staphylococcus aureus (V41) was determined"}, "[3]": {"system": "Staphylococcus epidermidis", "assay": "Antimicrobial activity against gram positive Staphylococcus epidermidis (222) was determined"}}, "data": [{"compound": "CCCCOP(=O)(OCCCC)OC1=C(C(=O)[O-])N2C(=O)[C@@H](NC(=O)COc3ccccc3)[C@H]2CC1.[Na+]", "values": [{"measurement": "MIC", "setting": "Escherichia coli", "value": "> 128", "unit": "µg/mL"}, {"measurement": "MIC", "setting": "Streptococcus pneumoniae", "value": 0.03, "unit": "µg/mL"}, {"measurement": "MIC", "setting": "Staphylococcus aureus [1]", "value": 0.5, "unit": "µg/mL"}, {"measurement": "MIC", "setting": "Staphylococcus aureus [2]", "value": 64, "unit": "µg/mL"}, {"measurement": "MIC", "setting": "[3]", "value": 1, "unit": "µg/mL"}]}, {"compound": "CCOP(=O)(OCC)OC1=C(C(=O)[O-])N2C(=O)[C@@H](NC(=O)COc3ccccc3)[C@H]2CC1.[Na+]", "values": [{"measurement": "MIC", "setting": "Escherichia coli", "value": 64, "unit": "µg/mL"}, {"measurement": "MIC", "setting": "Streptococcus pneumoniae", "value": 0.25, "unit": "µg/mL"}, {"measurement": "MIC", "setting": "Staphylococcus aureus [1]", "value": 0.25, "unit": "µg/mL"}, {"measurement": "MIC", "setting": "Staphylococcus aureus [2]", "value": 2, "unit": "µg/mL"}, {"measurement": "MIC", "setting": "[3]", "value": 1, "unit": "µg/mL"}]}, {"compound": "O=C(COc1ccccc1)N[C@@H]1C(=O)N2C(C(=O)O)=C(OP(=O)(O)O)CC[C@H]12", "values": [{"measurement": "MIC", "setting": "Escherichia coli", "value": "> 128", "unit": "µg/mL"}, {"measurement": "MIC", "setting": "Streptococcus pneumoniae", "value": "> 128", "unit": "µg/mL"}, {"measurement": "MIC", "setting": "Staphylococcus aureus [1]", "value": 64, "unit": "µg/mL"}, {"measurement": "MIC", "setting": "Staphylococcus aureus [2]", "value": "> 128", "unit": "µg/mL"}, {"measurement": "MIC", "setting": "[3]", "value": "> 128", "unit": "µg/mL"}]}, {"compound": "N[C@@H](C(=O)N[C@@H]1C(=O)N2C(C(=O)O)=C(Cl)CC[C@H]12)c1ccccc1", "note": "[LORACARBEF ANHYDROUS]", "values": [{"measurement": "MIC", "setting": "Escherichia coli", "value": 0.05, "unit": "µg/mL"}, {"measurement": "MIC", "setting": "Streptococcus pneumoniae", "value": 1, "unit": "µg/mL"}, {"measurement": "MIC", "setting": "Staphylococcus aureus [1]", "value": 2, "unit": "µg/mL"}, {"measurement": "MIC", "setting": "Staphylococcus aureus [2]", "value": 4, "unit": "µg/mL"}, {"measurement": "MIC", "setting": "[3]", "value": 2, "unit": "µg/mL"}]}, {"compound": "CC1(C)S[C@@H]2[C@H](NC(=O)COc3ccccc3)C(=O)N2[C@H]1C(=O)O", "note": "[PENICILLIN V]", "values": [{"measurement": "MIC", "setting": "Escherichia coli", "value": 128, "unit": "µg/mL"}, {"measurement": "MIC", "setting": "Streptococcus pneumoniae", "value": 0.06, "unit": "µg/mL"}, {"measurement": "MIC", "setting": "Staphylococcus aureus [1]", "value": 0.06, "unit": "µg/mL"}, {"measurement": "MIC", "setting": "Staphylococcus aureus [2]", "value": 16, "unit": "µg/mL"}, {"measurement": "MIC", "setting": "[3]", "value": 0.125, "unit": "µg/mL"}]}, {"compound": "COP(=O)(OC)OC1=C(C(=O)[O-])N2C(=O)[C@@H](NC(=O)COc3ccccc3)[C@H]2CC1.[Na+]", "values": [{"measurement": "MIC", "setting": "Escherichia coli", "value": 64, "unit": "µg/mL"}, {"measurement": "MIC", "setting": "Streptococcus pneumoniae", "value": 0.5, "unit": "µg/mL"}, {"measurement": "MIC", "setting": "Staphylococcus aureus [1]", "value": 0.5, "unit": "µg/mL"}, {"measurement": "MIC", "setting": "Staphylococcus aureus [2]", "value": 2, "unit": "µg/mL"}, {"measurement": "MIC", "setting": "[3]", "value": 1, "unit": "µg/mL"}]}]}
